{
  "source": "patent US20250161338A1",
  "about": "“Compounds for Anti-aging Intervention” (AGENCY FOR SCIENCE, TECHNOLOGY AND RESEARCH, priority 2022, published 2025)",
  "key": {"[1]": {"system": "wild-type Saccharomyces cerevisiae CEN.PK113-7D yeast strain", "assay": "Yeast cell growth (OD600) in SD medium", "format": "cell-based", "details": "0 to 8 mM; 24, 48 and 72 hours", "method": "(§1) Yeast strain was recovered from frozen glycerol stock at 30° C. on YPD agar medium. Yeast was left to propagate in SD medium overnight at 30° C. with shaking at 220 revolutions per minute (rpm). Cells propagated overnight were diluted to a starting optical density at 600 nm (OD600) of approximately 0.2 in fresh SD medium to begin the chronological lifespan (CLS) experiments.\n(§2) CLS experiments were performed in 96-well plates with 200 μL yeast culture. Cellular inoculums were transferred into 96-well plates containing serially double-diluted concentrations (0 to 10 nM) of rapamycin. Cellular inoculum was transferred into 96-well plates containing serially double-diluted concentrations (0 to 8 mM) of 2,5-anhydro-D-mannitol, D-fructose, D-mannitol, D-maltose, and D-sorbitol in SD medium. Cells were incubated at 30° C., and the growth was measured at different time points. The growth time point 72 hours was considered as Day 1 for the CLS assay. Cell survival was quantified at various age time points by three different approaches: (i) PI fluorescence-based method, (ii) outgrowth in YPD liquid medium, and (iii) spotting assay (FIG. 1).\nFirstly, the effect of 2,5-AM on cell growth was determined. Yeast cells were incubated with varying concentrations of 2,5-AM in the SD medium. Cell growth was measured at different time points (24 hours, 48 hours, and 72 hours). […] Then, the survival of chronologically aged cells supplemented with different concentrations of 2,5-AM was measured using the PI fluorescence method. At each chronological age point, a 3 μL culture was transferred to a second 96-well plate containing 200 μL YPD medium. The 72-hour growth culture was considered Day 1 for the CLS analysis. The viability fraction was calculated, and a survival graph was plotted for different chronological age time points (FIG. 5). […] The survival of aged cells supplemented with 2,5-AM (4 mM and 8 mM) on Day 4 was approximately 80%. However, the survival of aged cells without 2,5-AM was approximately 50%. On Day 7, survival of 2,5-AM supplemented aged cells was approximately 75%. However, the survival of aged cells without 2,5-AM was reduced to less than 20%.\nFirstly, the effect of fructose, mannitol, maltose, and sorbitol on cell growth was tested. Yeast cells were incubated with various concentrations of fructose, mannitol, maltose, and sorbitol similar to 2,5-AM in the SD medium. […] Next, the survival of chronologically aged cells on day 1, day 7, day 14, and day 21 was measured. […] Aged cells supplemented with 2,5-AM (8 mM) survived (approximately 65%) on Day 21. However, the survival of aged cells without 2,5-AM supplementation was less than 10%."}, "[2]": {"system": "wild-type Saccharomyces cerevisiae CEN.PK113-7D yeast strain", "assay": "Chronological lifespan analysis in yeast (PI, outgrowth, spotting)", "format": "cell-based", "method": "as §1\nas §2, with “Cellular inoculum was transferred into 96-well plates containing serially double-diluted concentrations (0 to 8 mM) of 2,5-anhydro-D-mannitol, D-fructose, D-mannitol, D-maltose, and D-sorbitol in SD medium.” left out\nYeast cells (40 μL) from different age time points were transferred into a second 96-well plate (different to the 96-well plate in which the CLS analysis as outlined above was performed). Cells were washed and incubated in 100 μL 1×phosphate buffered saline (PBS) with propidium iodide (PI) (5 μg/mL) for 15 minutes in the dark. Positive and negative control samples were included for quantitative analysis. Positive control (cells boiled at 100° C. for 15 minutes) was PI-stained and processed in the same 96-well plate. Samples without PI-stained cells served as the negative control. After incubation, cells were washed and resuspended in 100 μL PBS. The fluorescence reading of the samples (excitation and emission wavelengths at 535 nm and 617 nm, respectively) and OD600 were measured with a microplate reader (BioTek, Winooski, Vermont, United States). The fluorescence intensity of each sample was normalized with OD600. The background fluorescence signal of the unstained negative sample was subtracted from the normalized fluorescence intensity of each sample. The obtained fluorescence intensity of the positive control (boiled dead cells) was considered 0% cell survival. Cell death was validated by allowing the boiled dead cells to grow in medium. Cell survival at different age time points of samples were calculated by normalizing the fluorescence intensity with positive control sample (boiled cells).\nYeast stationary culture (3 μL) of different age time points were transferred to a second 96-well plate, containing 200 μL YPD medium, and incubated for 24 hours at 30° C. Outgrowth (OD600) of aged cells was measured by the microplate reader. Quantification of cell survival for each age point was determined as relative to Day 1 (considered 100% cell survival). This quantification was performed by using the formula,\nYeast stationary culture (3 μL) of different age time points were spotted onto a YPD agar plate and incubated for 48 hours at 30° C. The outgrowth of aged cells on the YPD agar plate was photographed using the Bio-Rad GelDoc Imaging System (Bio-Rad, Hercules, California, United States)."}, "[3]": {"system": "wild-type Saccharomyces cerevisiae CEN.PK113-7D yeast strain", "details": "very high concentrations (18% equivalent to 1M); by increasing osmolarity; cited from earlier work"}, "[4]": {"system": "prototrophic yeast strain (CEN.PK113-7D)", "assay": "Yeast outgrowth in YPD liquid medium (CLS of aged cells)", "format": "cell-based, Saccharomyces cerevisiae", "details": "concentration tested 100 μM; OD600 nm after 24 h in YPD at 30° C.; age point day 14", "method_in_brief": "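Cultures aged at 30 °C in SD medium with double-diluted rapamycin (0–10 nM) or sugars/polyols (0–8 mM). On day 14, 3 µL of culture was transferred into 200 µL YPD and outgrowth read as OD600. Survival expressed relative to day 1 outgrowth (100%).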"}, "[5]": {"system": "prototrophic yeast strain (CEN.PK113-7D)", "assay": "Propidium iodide fluorescence-based CLS method in yeast (incl. high-throughput screening)", "format": "cell-based, Saccharomyces cerevisiae", "details": "concentration tested 100 μM; for Yeast CLS increase: Yes/No call of the screen; for PI intensity: solvent DMSO or water, chronological age point Day 7 (72 h growth = Day 1), lower = more survival", "method_in_brief": "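CEN.PK113-7D aged in SD medium at 30 °C with compounds (rapamycin 0–10 nM; sugars 0–8 mM; screen at single concentrations). At each age point cells were stained with 5 μg/mL PI for 15 min; fluorescence was normalized to OD600, background-subtracted, and survival scaled against boiled-cell control.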"}, "human cells": {"system": "human cells", "assay": "High-throughput chemical screening using the PI method in human cells", "format": "cell-based", "details": "Day 6; library tested at 1 μM; controls ranged from 4.22 to 4.53; lower = extended CLS", "method": "The stock solution of rapamycin, hemin, 5-fluorouracil, atorvastatin, and methotrexate was prepared in DMSO, followed by serial dilution to form various concentrations used in the experiment. The final DMSO concentration was kept at 0.05% in all experiments. The stock solution of 2,5-anhydro-D-mannitol was prepared in D10 medium. The chemical library used in screening were tested at 1 μM concentrations. Controls used were the same as the solvent applied, DMSO or water.\nThe assay was performed by preparing the cells with PI (2 μg/mL or 5 μg/mL) in a D10 medium. 200 μL culture (8×10^4 cells) was seeded per well in a 96-well plate with different concentrations of the anti-aging drug (rapamycin, 2,5-AM, plicamycin, copanlisib dihydrochloride, nedaplatin, hemin, 5-fluorouracil, methotrexate, or atorvastatin) and no treatment control (DMSO). The culture plate was kept away from light throughout the experiment and incubated at 37° C. with 5% CO2. At different age time points, reading was taken with a Synergy MX microplate reader (BioTek, Winooski, Vermont, United States) at 535 nm excitation and 617 nm emission.\nThe PI method was used to identify additional novel anti-aging compounds that prolong CLS. A total of 162 compounds were screened, including some FDA-approved drugs and natural products. The log10 values of the PI intensity for the various control samples ranged from 4.22 to 4.53."}, "[6]": {"details": "0 to 8 mM in SD medium, up to day 21"}},
  "note": "Entries after “also recorded” stand apart in the source; their conditions may differ.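 Throughout, for PI intensity: untreated reference is eight DMSO and water control wells per plate.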",
  "data": [
    {"molecule": "O=C(CO)[C@@H](O)[C@H](O)[C@H](O)CO", "note": "[fructose, D-fructose]", "values": [
      {"measurement": "cell growth", "setting": "[1]", "value": "reached growth saturation after 24 hours"},
      {"measurement": "effect on yeast CLS", "setting": "[2]; [6]", "value": "did not extend the lifespan of the yeast"}
    ]},
    {"molecule": "OC[C@H]1O[C@H](O[C@H]2[C@H](O)[C@@H](O)[C@H](O)O[C@@H]2CO)[C@H](O)[C@@H](O)[C@@H]1O", "note": "[maltose, D-maltose]", "values": [
      {"measurement": "cell growth", "setting": "[1]", "value": "reached growth saturation after 24 hours"},
      {"measurement": "effect on yeast CLS", "setting": "[2]; [6]", "value": "did not extend the lifespan of the yeast"}
    ]},
    {"molecule": "OC[C@@H](O)[C@@H](O)[C@H](O)[C@H](O)CO", "note": "[mannitol, D-mannitol]", "values": [
      {"measurement": "cell growth", "setting": "[1]", "value": "reached growth saturation after 24 hours"},
      {"measurement": "effect on yeast CLS", "setting": "[2]; [6]", "value": "did not extend the lifespan of the yeast"}
    ]},
    {"molecule": "OC[C@@H](O)[C@@H](O)[C@H](O)[C@@H](O)CO", "note": "[sorbitol, D-sorbitol]", "values": [
      {"measurement": "effect on yeast CLS (known)", "setting": "[3]", "value": "increase the CLS of yeast cells"},
      {"measurement": "cell growth", "setting": "[1]", "value": "reached growth saturation after 24 hours"},
      {"measurement": "effect on yeast CLS", "setting": "[2]; [6]", "value": "did not extend the lifespan of the yeast; also recorded: unable to increase the CLS"},
      {"measurement": "effect on yeast CLS", "setting": "[2]; very high concentrations, between 0.5 and 1 M", "value": "increased the CLS of yeast"}
    ]},
    {"molecule": "Streptomycin (sulfate) [reference compound]", "values": [
      {"measurement": "Outgrowth", "setting": "[4]", "value": 0.1},
      {"measurement": "Yeast CLS increase", "setting": "[5]", "value": "No"},
      {"measurement": "PI intensity", "setting": "[5]", "value": "60,638.5"}
    ]},
    {"molecule": "Vincristine (sulfate) [reference compound]", "values": [
      {"measurement": "Outgrowth", "setting": "[4]", "value": 0.1},
      {"measurement": "Yeast CLS increase", "setting": "[5]", "value": "No"},
      {"measurement": "PI intensity", "setting": "[5]", "value": "62,812.1"}
    ]},
    {"molecule": "copanlisib dihydrochloride", "values": [
      {"measurement": "log10 PI intensity", "setting": "human cells", "value": 3.59}
    ]},
    {"molecule": "plicamycin", "values": [
      {"measurement": "log10 PI intensity", "setting": "human cells", "value": 3.91}
    ]}
  ]
}
